The text below walks through data of patent US7910579B2, “Benzoxazole derivatives” (Tohoku University, priority 2006, dated 2011).

Data set [1] has as its system neurofibrillary tangle in the brain section of an Alzheimer disease patient. In words: Staining test on a brain section of an Alzheimer disease patient: neurofibrillary tangle. In kind it is binding, human. To be noted: 100 μM solution in 50% ethanol, 10 minutes, paraffin brain section. The text has this: (1) Brain specimens at the temporal lobe and the hippocampus of patients to which a definitive diagnosis of Alzheimer disease had been given, and those of normal senile persons were used. The specimens were given by our coworker, Fukushimura Hospital, Longevity Medicine Institute, and we were given their consent of use of the specimens for our study purpose by the bereaved of the patients (Fukushimura Hospital Ethical Review Board Approval No. 20).
(2) The paraffin-embedded brain tissue was cut Into slices having a thickness of 6 μm or 8 μm, and extended and dried on a slide. The paraffin brain section was steeped for paraffin removal in xylene twice for 10 minutes, 100% ethanol twice for 5 minutes, 90% ethanol for 5 minutes and running water for 10 minutes in that order.
(3) For pretreatment prior to the staining treatment with a compound of the invention, the sections were steeped for autofluorescence removal with lipofuscin. First, the paraffin-removed sections were dipped in 0.25% KMnO4 solution for 20 minutes. These were washed with PBS, twice for 2 minutes, then dipped in 0.1% K2S2O5/oxalic acid solution for about 5 seconds, and then further washed with PBS, three times for 2 minutes.
(4) About 150 μl of a 100 μM solution of a compound of the invention dissolved in 50% ethanol was dropwise applied to the section and reacted for 10 minutes. After dipped five times in tap water, the section was entrapped with Fluor Save Reagent (Calbiochem), and analyzed through microscopy with a fluorescence microscope (Nikon, Eclipse 80i). The images were taken with a digital camera (Nikon Dxm 1200F or Photometrics' Cool SNAP ES). […]

Data set [2] deals with T1, Tg mouse intracerebral amyloid plaque (Homo sapiens, UniProt P05067).
T1 construct: from tissue; host or cells: brain of Tg mice (Tg2576 or APPswe2576/Tau JNPL3) after intravenous dosing
T1 sequence (P05067 672-713 limits assumed): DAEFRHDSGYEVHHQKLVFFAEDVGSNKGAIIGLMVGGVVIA
In words: Investigation of transgenic (Tg) mice with amyloid deposition in their brain (fluorescence microscopy of brain sections after intravenous administration). In kind it is in vivo. To be noted: APPswe2576/Tau JPL3 mouse, 4 mg/kg intravenous, 1 hour after administration.

Another data set can be described thus: Acute Toxicity Test. The format is in vivo. Particulars: Crj:CD1 male mice, tail vein, observed for 7 days. Here is the method:
The compounds of the invention were tested for their acute toxicity through intravenous administration thereof to mice. Four Crj:CD1 male mice formed one test group, and some test groups of those mice were used (the mean body weight of the mice of each group was from 31 to 32 g). A test compound was dissolved in a mixture of 1 N HCl, polyethylene glycol-400 and distilled water, or dissolved in DMSO, and then diluted with distilled water. This was administered to each mouse via its tail vein.

Data set [3] deals with histidine-requiring Salmonella typhimurium TA100 and TA98 strains. In words: Mutagenicity Test (reverse mutation test). For Relative Activity in the presence of S9Mix: key: minus: The number of colonies after reverse mutation did not increase at least two times that of the negative control. In kind it is cell-based. An outline of the steps:
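Preincubation reverse-mutation test in S. typhimurium TA100 and TA98, with and without S9mix, 20 min at 37° C, then 48 h at 37° C on minimal glucose agar. Six doses (common ratio 2) in DMSO, top dose 5000 μg/plate or growth-inhibiting dose. Revertant colonies counted; positive at ≥2-fold over DMSO control with dose dependency or reproducibility.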

The target in data set [4] is T2, amyloid β protein in the brain section of an Alzheimer disease patient (Homo sapiens, UniProt P05067).
T2 construct: from tissue; host or cells: paraffin-embedded temporal lobe and hippocampus of Alzheimer disease patients
T2 sequence (P05067 672-713 limits assumed): as above
In words: Staining test on a brain section of an Alzheimer disease patient: amyloid β protein. Particulars: for Binding to (staining of) amyloid β protein in the brain section of an Alzheimer disease patient: 100 μM solution in 50% ethanol, 10 minutes, paraffin brain section; for Specificity to amyloid β: statement in the description of formulae (II) to (VI). In kind it is binding. An outline of the steps:
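Deparaffinized 6 or 8 μm temporal lobe/hippocampus sections from Alzheimer and normal senile brains, autofluorescence quenched with KMnO4 then K2S2O5/oxalic acid, stained 10 min with 100 μM compound in 50% ethanol and imaged by fluorescence microscopy. Amyloid β immunostaining with 6F/3D antibody and ABC/DAB detection used for comparison.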

The structures appear in SMILES notation.

`OCC(CF)COc1ccc2nc(/C=C/c3cnc(N4CCOCC4)s3)oc2c1` (stereo not shown) [THK-727, 2-fluoromethyl-3-[2-[2-(2-morpholin-4-yl-thiazol-5-yl)-vinyl]-benzoxazol-6-yloxy]-propan-1-ol]: the “Binding to (staining of) neurofibrillary tangle in the brain section of an Alzheimer disease patient” value in data set [1] is “white space arrow head indicates neurofibrillary tangle”. In data set [2], the “Passage through the blood-brain barrier and binding to Tg mouse intracerebral amyloid plaque” value is “passed through the blood-brain barrier, and bound to the Tg mouse intracerebral amyloid plaque”. Besides, the “Maximum Permissible Dose (mg/kg, intravenous administration)” value in the data set “Acute Toxicity Test” was “≧10 mg/kg”. In data set [3] (irrespective of the absence or presence of S9mix), the “Relative activity (mutagenicity)” value is “minus”. Also, in data set [3] (reverse mutation test, +S9mix), the “Relative Activity in the presence of S9Mix” value is reported as “minus”. Moreover, the “Relative Activity in the absence of S9Mix” value in data set [3] (reverse mutation test, -S9mix) is “minus”. Moreover, the “Binding to (staining of) amyloid β protein in the brain section of an Alzheimer disease patient” value in data set [4] is “white space arrow indicates amyloid β protein”.
For `CN1C=CC(=CC=C2C=CC(=O)C=C2)C=C1` [THK-317, 4-[2-(1-methyl-1H-pyridin-4-ylidene)-ethylidene]-cyclohexa-2,5-dienone], in data set [1], the “Binding to (staining of) neurofibrillary tangle in the brain section of an Alzheimer disease patient” value is “bound to the amyloid β protein and the neurofibrillary tangle”. In addition, in data set [4], the “Binding to (staining of) amyloid β protein in the brain section of an Alzheimer disease patient” value was “bound to the amyloid β protein” and the “Specificity to amyloid β” value was “high specificity to amyloid β”.
For `CN(C)c1ccc(-c2nnc(-c3sc4ccccc4c3Cl)o2)cc1` [THK-258, [4-[5-(3-chloro-benzo[b]thiophen-2-yl)-[1,3,4]oxadiazol-2-yl]-phenyl]-dimethylamine], the “Binding to (staining of) neurofibrillary tangle in the brain section of an Alzheimer disease patient” value in data set [1] was “bound to the amyloid β protein and the neurofibrillary tangle”. Further, in data set [4], the “Binding to (staining of) amyloid β protein in the brain section of an Alzheimer disease patient” value is recorded as “bound to the amyloid β protein” and the “Specificity to amyloid β” value is given as “high specificity to amyloid β”.
